Source: patent US20250188085A1, “COMPOSITIONS AND METHODS FOR INHIBITION OF RAS” (THERAS, INC., priority 2022, published 2025)

What was measured:
[1] = target: T1, GTP-loaded KRAS4b (amino acids 1-169) G12C/C118S protein (Homo sapiens, UniProt P01116, C118S/G12C); assay: Covalent cysteine 12 modification by MALDI-TOF MS, GTP-loaded KRAS G12C; format: binding; conditions: 15 minutes reaction time point
T1 construct: KRAS4b (amino acids 1-169) G12C/C118S protein; made in house
How it was run: (§1)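 KRAS4b 1-169 G12C/C118S loaded with GDP, GppNHp or GTP was used at 1 μM in 20 mM HEPES, 150 mM NaCl, 1 mM MgCl2, pH 7.3, and incubated with compound (5 mM DMSO stock) at room temperature in the dark. % modification at 15 min is adduct peak height over total protein peak heights by linear-mode MALDI-TOF.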

[2] = target: T2, Avi-KRAS G12C (1-169) GppNHp/RAF1 RBD-3×FLAG (52-151) (Homo sapiens, UniProt P01116, G12C); assay: Raf1 RBD-KRAS G12C-GppNHp disruption (protein:protein interaction HTRF assay); format: biochemical
T2 construct: Avi-KRAS G12C (1-169) GppNHp/RAF1 RBD-3×FLAG (52-151)
How it was run: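 HTRF measuring disruption of 50 nM Avi-KRAS G12C (1-169) loaded with GppNHp binding RAF1 RBD-3×FLAG (52-151), in pH 7.5 Tris buffer with 5 mM MgCl2, 0.1% BSA, 10% DMSO. KRAS preincubated with compound 1 h, then RBD 1 h, then detection reagents 1 h, all at room temperature. Compound titration 30-0.02 μM; activity expressed as percent of DMSO control.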

[3] = target: T3, GppNHp-loaded KRAS4b (amino acids 1-169) G12C/C118S protein (Homo sapiens, UniProt P01116, C118S/G12C); assay: Covalent cysteine 12 modification by MALDI-TOF MS, GppNHp-loaded KRAS G12C; format: binding; conditions: 15 minutes reaction time point
T3 construct: KRAS4b (amino acids 1-169) G12C/C118S protein; made in house
How it was run: as §1

[4] = tested on: pERK in NCI-H358 cells; assay: Cell-based pERK HTRF assay; conditions: Homo sapiens, NCI-H358, 0.5 h, 30 min incubation, read-out: pERK in NCI-H358 cell inhibition IC50
How it was run: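 Cells seeded at 4×10^4/well in RPMI with 10% FBS, then next day treated for 30 min with a 9-point, 3-fold series from 75 μM top concentration at 0.25% DMSO. Lysates were read for pERK by HTRF (d2/Eu cryptate antibodies) after 4–24 h at room temperature, emission at 615 nm.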

[5] = target: T4, GDP-loaded KRAS4b (amino acids 1-169) G12C/C118S protein (Homo sapiens, UniProt P01116, C118S/G12C); assay: Covalent cysteine 12 modification by MALDI-TOF MS, GDP-loaded KRAS G12C; format: binding; conditions: 15 minutes reaction time point
T4 construct: KRAS4b (amino acids 1-169) G12C/C118S protein; made in house
How it was run: as §1

GTP-KRAS G12C percent of modification [1] | IC50 [2] [nM] | GppNHp-KRAS G12C percent of modification [3] | IC50 [4] [nM] | GDP-KRAS G12C percent of modification [5] | SMILES
C (10%≤modification <50%) | ≤ 500 | A (percent of modification ≥70%) | ≤ 100 | A (percent of modification ≥70%) | C=CC(=O)N1CC[C@@H](Oc2nc(OC[C@@]34CCCN3C[C@H](F)C4)nc3cc(-c4ccc(F)c5sc(N)c(C#N)c45)c(C#N)cc23)[C@H]1COC [Compound 112]
D (percent of modification <10%) | > 20000 | D (percent of modification <10%) | > 1000 | C (10%≤modification <50%) | C=CC(=O)N1CC[C@@H](Oc2nc(OC[C@@]34CCCN3C[C@H](F)C4)nc3cc(-c4ccc(F)c5sc(N)c(C#N)c45)c(F)cc23)[C@H]1COC [Compound 113]
C (10%≤modification <50%) | ≤ 500 | C (10%≤modification <50%) | ≤ 100 | C (10%≤modification <50%) | C=CC(=O)N1CC[C@@H](Oc2nc(OC[C@@]34CCCN3C[C@H](F)C4)nc3c(F)c(-c4ccc(F)c5sc(N)c(C#N)c45)c(C(F)(F)F)cc23)[C@H]1CC [Compound 114]
D (percent of modification <10%) | 500 to 5000 | D (percent of modification <10%) | 100 to 1000 | C (10%≤modification <50%) | C=CC(=O)N1CC[C@@H](Oc2nc(OC[C@@]34CCCN3C[C@H](F)C4)nc3c(F)c(-c4ccc(F)c5sc(N)c(C#N)c45)c(C(F)(F)F)cc23)[C@@H]1CC [Compound 115]
D (percent of modification <10%) | > 20000 | D (percent of modification <10%) | > 1000 | C (10%≤modification <50%) | C=CC(=O)N1CC[C@@H](Oc2nc(OC[C@@]34CCCN3C[C@H](F)C4)nc3c(F)c(-c4ccc(F)c5sc(N)c(C#N)c45)ccc23)[C@@H]1CC [Compound 116]
D (percent of modification <10%) | > 20000 | D (percent of modification <10%) | > 1000 | C (10%≤modification <50%) | C=CC(=O)N1CC[C@@H](Oc2nc(OC[C@@]34CCCN3C[C@H](F)C4)nc3c(F)c(-c4ccc(F)c5sc(N)c(C#N)c45)c(Cl)cc23)[C@@H]1CC [Compound 117]
D (percent of modification <10%) | 500 to 5000 | D (percent of modification <10%) | > 1000 | A (percent of modification ≥70%) | C=CC(=O)N1CC[C@@H](Oc2nc(OC[C@@]34CCCN3C[C@H](F)C4)nc3c(F)c(-c4ccc(F)c5sc(N)c(C#N)c45)ccc23)[C@@H]1C [Compound 118]
D (percent of modification <10%) | 5000 to 20000 | D (percent of modification <10%) | > 1000 | B (50≤percent of modification <70%) | C=CC(=O)N1CC[C@@H](Oc2nc(OC[C@@]34CCCN3C[C@H](F)C4)nc3cc(-c4ccc(F)c5sc(N)c(C#N)c45)c(F)cc23)[C@@H]1C [Compound 119]

Second part, the compound before the results:

SMILES | GTP-KRAS G12C percent of modification [1] | IC50 [2] [nM] | GppNHp-KRAS G12C percent of modification [3] | IC50 [4] [nM] | GDP-KRAS G12C percent of modification [5]
C=CC(=O)N1CC[C@@H](Oc2nc(OC[C@@]34CCCN3C[C@H](OC)C4)nc3cc(-c4ccc(F)c5sc(N)c(C#N)c45)c(C(F)(F)F)cc23)[C@H]1C [Compound 102] | A (percent of modification ≥70%) | ≤ 500 | A (percent of modification ≥70%) | ≤ 100 | A (percent of modification ≥70%)
C=CC(=O)N1CC[C@@H](Oc2nc(OC[C@@]34CCCN3C[C@H](F)C4)nc3cc(-c4ccc(F)c5sc(N)c(C#N)c45)ccc23)[C@H]1C [Compound 103] | C (10%≤modification <50%) | ≤ 500 | B (50≤percent of modification <70%) | ≤ 100 | A (percent of modification ≥70%)
C=CC(=O)N1CC[C@@H](Oc2nc(OC[C@@]34CCCN3C[C@H](F)C4)nc3c(C#N)c(-c4ccc(F)c5sc(N)c(C#N)c45)ccc23)[C@H]1C [Compound 104] | C (10%≤modification <50%) | ≤ 500 | C (10%≤modification <50%) | 100 to 1000 | A (percent of modification ≥70%)
C=CC(=O)N1CC[C@@H](Oc2nc(OC[C@@]34CCCN3C[C@H](F)C4)nc3c(Cl)c(-c4ccc(F)c5sc(N)c(C#N)c45)c(C#N)cc23)[C@H]1C [Compound 105] | B (50≤percent of modification <70%) | ≤ 500 | A (percent of modification ≥70%) | ≤ 100 | B (50≤percent of modification <70%)
C=CC(=O)N1CC[C@@H](Oc2nc(OC[C@@]34CCCN3C[C@H](F)C4)nc3c(Cl)c(-c4ccc(F)c5sc(N)c(C#N)c45)ncc23)[C@H]1C [Compound 106, 4-(4-(((2R,3R)-1-acryloyl-2-methylpyrrolidin-3-yl)oxy)-8-chloro-2-(((2R,7aS)-2-fluorotetrahydro-1H-pyrrolizin-7a (5H)-yl)methoxy)pyrido[4,3-d]pyrimidin-7-yl)-2-amino-7-fluorobenzo[b]thiophene-3-carbonitrile] | A (percent of modification ≥70%) | ≤ 500 | A (percent of modification ≥70%) | ≤ 100 | A (percent of modification ≥70%)
C=CC(=O)N1CC[C@@H](Oc2nc(OC[C@@]34CCCN3C[C@H](F)C4)nc3cc(-c4ccc(F)c5sc(N)c(C#N)c45)c(C#N)cc23)[C@H]1C [Compound 107] | C (10%≤modification <50%) | ≤ 500 | A (percent of modification ≥70%) | ≤ 100 | A (percent of modification ≥70%)
C=CC(=O)N1CC[C@@H](Oc2nc(OC[C@@]34CCCN3C[C@H](F)C4)nc3c(F)c(-c4ccc(F)c5sc(N)c(C#N)c45)ccc23)[C@H]1CC [Compound 108] | C (10%≤modification <50%) | ≤ 500 | C (10%≤modification <50%) | ≤ 100 | A (percent of modification ≥70%)
C=CC(=O)N1CC[C@@H](Oc2nc(OC[C@@]34CCCN3C[C@H](F)C4)nc3c(Cl)c(-c4ccc(F)c5sc(N)c(C#N)c45)ncc23)[C@H]1COC [Compound 110] | A (percent of modification ≥70%) | ≤ 500 | A (percent of modification ≥70%) | ≤ 100 | A (percent of modification ≥70%)
C=CC(=O)N1CC[C@@H](Oc2nc(OC[C@@]34CCCN3C[C@H](F)C4)nc3c(F)c(-c4ccc(F)c5sc(N)c(C#N)c45)c(Cl)cc23)[C@H]1COC [Compound 111] | D (percent of modification <10%) | 500 to 5000 | D (percent of modification <10%) | ≤ 100 | C (10%≤modification <50%)
